Data as given in ChEMBL document CHEMBL1130989, “Design and synthesis of bio-isosteres of thymidine triphosphate” (Bioorg Med Chem Lett, 1998).

Experiments:
[1] = tested on: CCRF-CEM; assay: Dose required for no significant anti-HIV activity against HIV-1 in human lymphocyte CEM cells; type: functional, cell-based
[2] = tested on: CCRF-CEM; assay: Dose required for no significant anti-HIV activity against HIV-2 in human lymphocyte CEM cells; type: functional, cell-based
[3] = target: Human immunodeficiency virus type 1 reverse transcriptase (Human immunodeficiency virus 1, UniProt Q72547); assay: Concentration required for no significant inhibitory activity against HIV-1 reverse transcriptase

| Structure (SMILES) | EC50 [1] [µM] | EC50 [2] [µM] | IC50 [3] [µM] |
| --- | --- | --- | --- |
| Cc1cn(C2CC(O[Si](C)(C)C(C)(C)C)C(CNC(=O)CC3(C)CC(O[Si](c4ccccc4)(c4ccccc4)C(C)(C)C)CN3C(=O)OC(C)(C)C)O2)c(=O)[nH]c1=O (stereo not given) | > 200 | > 200 | > 500 |
| Cc1cn(C2C=CC(CNC(=O)CC3(C)CC(O[Si](c4ccccc4)(c4ccccc4)C(C)(C)C)CN3C(=O)OC(C)(C)C)O2)c(=O)[nH]c1=O (stereo not given) | > 200 | > 200 | > 500 |
| Cc1cn(C2C=CC(CNC(=O)CC3(C)CC(O)CN3C(=O)OC(C)(C)C)O2)c(=O)[nH]c1=O (stereo not given) | > 200 | > 200 | > 500 |
| Cc1cn(C2CC(O)C(CNC(=O)CC3(C)CC(O)CN3)O2)c(=O)[nH]c1=O (stereo not given) | > 200 | > 200 | > 500 |
| Cc1cn(C2C=CC(CNC(=O)CC3(C)CC(O)CN3)O2)c(=O)[nH]c1=O (stereo not given) | > 200 | > 200 | > 500 |
